Assay results: EP0388528B1, “Carboximidamide derivatives” (KIRIN BEER KABUSHIKI KAISHA, priority 1988, dated 1990)

Tests used:
beagles [1] = assay: Hemodynamic profile in beagles (intravenously); type: in vivo; conditions: peak percent change from pretreatment
Experimental: Hemodynamic profile of the compound of the present invention was investigated in beagles anesthetized with pentobarbital (30 mg/kg, intravenously) [test compound: N-cyano-N′-(2-nitroxyethyl)-3-pyridinecarboximidamide (compound (13))]. The thorax was opened under artificial respiration. After administering heparin in an amount of 500 units/kg, a Moravitz's cannula was introduced into the coronary sinus via the right atrium. The coronary sinus outflow was returned to the right external jagular vein. The coronary sinus outflow was measured by an electromagnetic flowmeter (MFU-2100, manufactured by Nihon Kohden) connected to the Moravitz's cannula. A cannula was inserted into the aortic arch through the subclavian artery to measure aortic blood pressure. The aortic blood pressure was measured with a pressure transducer (Nihon Kohden, TP-200T). Heart rate was monitored with a heart rate counter with R waves of electrocardiogram. All parameters were recorded on a thermosensitive recorder (WT-685G, manufactured by Nihon Kohden).
The compound was administered through the cannula inserted into the right femoral vein. Nicorandil was used as a control. As for respective measurement items, peak changes were expressed as percent change from the pretreatment values of the compound (13) or nicorandil.

isolated heart of rats = assay: Myocardiac injury induced by re-perfusion after ischemia (isolated heart of rats); conditions: 1×10⁻⁷ mole/min, after 30 minutes re-perfusion, mean ± SD
Experimental: The cardiac muscle protecting effect of the compound of the present invention was tested by using the isolated heart of rats [test compound: N-cyano-N′-(2-nitroxyethyl)-3-pyridinecarboximidamide (compound (13))]. The Langendorff's method was used in the same manner as in the aforementioned Referential Example 1)-6. The isolated heart was perfused with a perfusate for 30 minutes and then with a perfusate containing the test compound for 10 minutes, and perfusion was stopped so that the heart was in the so-called "ischemic state". Pacing was performed during the ischemia. […] Parameters of cardiac function after the onset of re-perfusion was monitored for 30 minutes, and the heart was quickly freezed. The amount of ATP in the heart muscle was extracted with perchloric acid and determined by HPLC. Nicorandil was used as a control.
The recovery rate of the cardiac function (heart rate × left ventricular pressure) after onset of reperfusion was calculated based on the cardiac function prior to the perfusion of the compound (13) and nicorandil as 100%. The amount of ATP in the heart muscle was also determined.

potassium channel = assay: Potassium channel activating effect (86Rb efflux from rat thoracic aorta); conditions: compound 10⁻⁴ M for 8 minutes, percent of the efflux before application
Experimental: Male Wistar rats (weighing 250-350 g) were dehematized to death, and thoracic aortae were rapidly isolated. The aorta was opened along the longitudinal axis to prepare a flat sheet. The preparation was loaded with ⁸⁶Rb in the Krebs-Ringer solution which contained ⁸⁶Rb in the concentration of 10 µCi/ml and was gassed with 95% O₂ - 5% CO₂ at 37°C for 2 hours. The preparation was then transferred to a Krebs-Ringer solution not containing ⁸⁶Rb, and washed to remove excess radioactivity for 18 minutes by refreshing the solution every 2 minutes. Finally the preparation was placed into a Krebs-Ringer solution containing each compound (10⁻⁴ M) for 8 minutes.
The amount of ⁸⁶Rb efflux from the preparation in each period was determined with a γ-counter.
The increment in efflux rate during the application of the compound was expressed as percent of the efflux before the application of the compound.

beagles [2] = assay: Hemodynamic profile in beagles (intraduodenally); type: in vivo; conditions: intraduodenal 100 µg/kg, percent change from pretreatment; for Total Peripheral Resistance: mean aortic blood pressure / (coronary + aortic blood flow)
Experimental: The aortic blood pressure, the heart rate and the coronary blood flow of the beagles anesthetized with pentobarbital were determined in the same manner as in the aforementioned Example 1)-7, and the aortic blood flow was measured with an electromagnetic flowmeter (MFV-3100, manufactured by Nihon Kohden) by attaching a probe at the origin of the aorta [test compound: N-cyano-N′-(2-nitroxyethyl)-3-pyridinecarboximidamide (compound (13))]. A nelaton's tube was inserted into the duodenum via a small abdominal incision for administration of the compound (13) (100 µg/kg). Time course changes in respective measurement items were expressed as percent changes from the pretreatment values. Total peripheral resistance was calculated by dividing the mean aortic blood pressure with the sum of the coronary blood flow and the aortic blood flow.

isolated rat heart = assay: Effect on isolated rat heart (Langendorff's method); conditions: 1 × 10⁻⁸ mol/min, mean ± S.D.
Experimental: The effect of the compound of the present invention on heart of rats was examined by using the Langendorff's method [test compound: N-cyano-N′-(2-nitroxyethyl)-3-pyridinecarboximidamide (compound (13))]. Hearts were excised from male rats (weighing 250-350 g) and perfused at 80 cmH₂O in a Langendorff fashion. Krebs-Hensaleit bicarbonate solution (pH 7.4, 37°C) containing an 11 mM glucose which was oxygenated with 95% O₂- 5% CO₂ gas mixture was used as a perfusate. The left ventricular pressure was recorded by inserting a latex baloon into the left ventricle, and heart rate was determined from the pulse of it. Coronary perfusate flow was also measured with an electromagnetic flowmeter. The experiments were carried out by perfusing a perfusate containing the compound (13) for 10 minutes after an initial equilibration period for 30 minutes. As the control compound, nicorandil which has an effect opening potassium channel and is similar to the test compound in structure was used. The changes in the coronary perfusate flow and the cardiac function (heart rate × left ventricular pressure) caused by these compounds were expressed as percent changes from the preperfusion values of the compound (13) or nicorandil.

N#CNC(=NCCO[N+](=O)[O-])c1cccnc1 [Compound (13), N-cyano-N'-(2-nitroxyethyl)-3-pyridinecarboximidamide]
Coronary Blood Flow (beagles [1]; i.v. 3.0 µg/kg): 16.4±1.8% | Heart Rate (beagles [1]; i.v. 3.0 µg/kg): 1.3±1.4% | Mean Aortic Blood Pressure (beagles [1]; i.v. 3.0 µg/kg): -15.3±2.5% | Coronary Blood Flow (beagles [1]; i.v. 10.0 µg/kg): 96.0±17.6% | Heart Rate (beagles [1]; i.v. 10.0 µg/kg): -5.9±2.8% | Mean Aortic Blood Pressure (beagles [1]; i.v. 10.0 µg/kg): -38.5±3.1% | Coronary Blood Flow (beagles [1]; i.v. 30.0 µg/kg): 134.1±9.2% | Heart Rate (beagles [1]; i.v. 30.0 µg/kg): -16.2±3.3% | Mean Aortic Blood Pressure (beagles [1]; i.v. 30.0 µg/kg): -50.7±2.1% | Amount of ATP in the heart muscle (µmole/g of dry weight) (isolated heart of rats): 11.12±1.12(6) µmole/g of dry weight | Increment of Efflux (%) (potassium channel): 213.53% | Aortic Blood Flow (beagles [2]; 1 min after dosage): 10.0% | Coronary Blood Flow (beagles [2]; 1 min after dosage): 1.8± 1.8% | Heart Rate (beagles [2]; 1 min after dosage): 0% | Mean Aortic Blood Pressure (beagles [2]; 1 min after dosage): -9.8± 1.0% | Total Peripheral Resistance (beagles [2]; 1 min after dosage): -17.8% | Aortic Blood Flow (beagles [2]; 2 min after dosage): 12.2% | Coronary Blood Flow (beagles [2]; 2 min after dosage): 14.4± 2.1% | Heart Rate (beagles [2]; 2 min after dosage): 1.6± 1.6% | Mean Aortic Blood Pressure (beagles [2]; 2 min after dosage): -14.3± 1.3% | Total Peripheral Resistance (beagles [2]; 2 min after dosage): -24.1% | Aortic Blood Flow (beagles [2]; 3 min after dosage): 15.1% | Coronary Blood Flow (beagles [2]; 3 min after dosage): 38.4± 9.1% | Heart Rate (beagles [2]; 3 min after dosage): 0% | Mean Aortic Blood Pressure (beagles [2]; 3 min after dosage): -21.2± 1.2% | Total Peripheral Resistance (beagles [2]; 3 min after dosage): -33.7% | Aortic Blood Flow (beagles [2]; 5 min after dosage): 27.0% | Coronary Blood Flow (beagles [2]; 5 min after dosage): 121.5± 22.0% | Heart Rate (beagles [2]; 5 min after dosage): -12.1± 5.1% | Mean Aortic Blood Pressure (beagles [2]; 5 min after dosage): -35.0± 2.0% | Total Peripheral Resistance (beagles [2]; 5 min after dosage): -49.5% | Aortic Blood Flow (beagles [2]; 7.5 min after dosage): 25.5% | Coronary Blood Flow (beagles [2]; 7.5 min after dosage): 142.3± 6.5% | Heart Rate (beagles [2]; 7.5 min after dosage): -17.5± 4.1% | Mean Aortic Blood Pressure (beagles [2]; 7.5 min after dosage): -37.0± 2.9% | Total Peripheral Resistance (beagles [2]; 7.5 min after dosage): -50.3% | Aortic Blood Flow (beagles [2]; 10 min after dosage): 15.0% | Coronary Blood Flow (beagles [2]; 10 min after dosage): 112.8± 10.6% | Heart Rate (beagles [2]; 10 min after dosage): -21.1± 4.4% | Mean Aortic Blood Pressure (beagles [2]; 10 min after dosage): -42.0± 2.9% | Total Peripheral Resistance (beagles [2]; 10 min after dosage): -51.1% | Aortic Blood Flow (beagles [2]; 20 min after dosage): 10.7% | Coronary Blood Flow (beagles [2]; 20 min after dosage): 64.2± 15.4% | Heart Rate (beagles [2]; 20 min after dosage): -26.1± 5.5% | Mean Aortic Blood Pressure (beagles [2]; 20 min after dosage): -49.4± 3.1% | Total Peripheral Resistance (beagles [2]; 20 min after dosage): -55.3% | Aortic Blood Flow (beagles [2]; 30 min after dosage): 8.3% | Coronary Blood Flow (beagles [2]; 30 min after dosage): 60.1± 15.1% | Heart Rate (beagles [2]; 30 min after dosage): -26.5± 4.6% | Mean Aortic Blood Pressure (beagles [2]; 30 min after dosage): -49.0± 3.7% | Total Peripheral Resistance (beagles [2]; 30 min after dosage): -55.8% | Aortic Blood Flow (beagles [2]; 60 min after dosage): 0.5% | Coronary Blood Flow (beagles [2]; 60 min after dosage): 28.0± 11.6% | Heart Rate (beagles [2]; 60 min after dosage): -10.0± 1.4% | Mean Aortic Blood Pressure (beagles [2]; 60 min after dosage): -36.5± 7.3% | Total Peripheral Resistance (beagles [2]; 60 min after dosage): -44.3% | Coronary Perfusate Flow (% change) (isolated rat heart; perfusion 10 minutes): 51.3±3.2 % change | Cardiac Function (isolated rat heart; heart rate × left ventricular pressure, percent change from preperfusion): 13.3±6.5%
